We go through 5 compounds from patent US8642633B2, “Di-substituted amides for enhancing glutamatergic synaptic responses” (Cortex Pharmaceutical, Inc., priority 2007, dated 2014).

The inhibition in vivo is the relative decrease from the control value, in per cent. The melting point is the temperature, or range, at which the solid turns liquid.

The subject of data set [1] is d-amphetamine stimulated locomotion in mice. Briefly: Inhibition of d-amphetamine stimulated locomotion. It is filed as in vivo. The conditions noted are these: Mus musculus, ip, 18 mpk i.p., d-amphetamine 2 mg/kg. As to the method:
B. Behavioral Testing: Inhibition of d-Amphetamine Stimulated Locomotion
The ability of the invention compounds to inhibit d-Amphetamine stimulated locomotor activity was assayed according to the following procedure. Male CD1 mice, 25-30 gm body weight, were brought into the experimental room and allowed at least 30 min of acclimation. Each mouse was placed into the testing enclosure with an infrared beam array that automatically monitors the animal's activity. Mice were habituated in the testing enclosure for 20 min, and then returned to their home cage. Mice were dosed intraperitoneally with test compound in appropriate vehicle 5 minutes before d-Amphetamine injection (2 mpk). Ten minutes after d-Amphetamine injection, mice were tested for locomotor activity for a total of […]. The data was computer collected and expressed as “arbitrary movement units.” All data were analyzed by comparing the groups treated with the test compound to the vehicle control group. The data shown is the % inhibition of hyperactivity induced by acute administration of 2 mg/kg d-amphetamine in mice. The compounds tested produced a statistically significant inhibition of d-amphetamine stimulated locomotion.
Male CD1 mice, 25-30 gm body weight, were brought into the experimental room and allowed at least 30 min of acclimation. Each mouse was placed into the testing enclosure with an infrared beam array that automatically monitors the animal's activity. Mice were habituated in the testing enclosure for 20 min, and then returned to their home cage. Mice were dosed intraperitoneally with test compound in appropriate vehicle 5 minutes before d-Amphetamine injection. Ten minutes after d-Amphetamine injection, mice were tested for locomotor activity for a total of 15 minutes. The data was computer collected and expressed as “arbitrary movement units.” All data were analyzed by comparing the groups treated with the test compound to the vehicle control group.

In data set [2] the test system is AMPA receptor. The data set can be described thus: In vivo electrophysiology: field EPSP amplitude in the dentate gyrus of anesthetized animals. As to conditions: rat, 10mpk i.p. Details: species or system rat. As to the method: A. Enhancement of AMPA Receptor Function In Vivo.
Synaptic responses mediated by AMPA receptors are increased according to the method of the invention, using the compounds described herein.
(§1) The electrophysiological effects of the invention compounds were tested in vivo in anesthetized animals according to the following procedures. Animals are maintained under anesthesia by phenobarbital administered using a Hamilton syringe pump. Stimulating and recording electrodes are inserted into the perforant path and dentate gyrus of the hippocampus, respectively. Once electrodes are implanted, a stable baseline of evoked responses are elicited using single monophasic pulses (100 μs pulse duration) delivered at 3/min to the stimulating electrode. Field EPSPs are monitored until a stable baseline is achieved (about 20-30 min), after which a solution of test compound is injected intraperitoneally and evoked field potentials are recorded. Evoked potentials were recorded for approximately 2 h following drug administration or until the amplitude of the field EPSP returns to baseline. In the latter instance, it is common that an iv administration is also carried out with an appropriate dose of the same test compound. Invention compounds were assayed in the in vivo electrophysiology assay described above and data for representative test compounds is shown in column 1 in Table 1.
The electrophysiological effects of invention compounds were tested in vivo in anesthetized animals according to the following procedures.
as §1, with “Animals” for “The electrophysiological effects of the invention compounds were tested in vivo in anesthetized animals according to the following procedures. Animals”, “are” for “were”, “compound.” for “compound. Invention compounds were assayed in the in vivo electrophysiology assay described above and data for representative test compounds is shown in column 1 in Table 1.”

On to `CN(C(=O)c1ccc2nonc2c1)C1CCC1` [Example 6, N-Cyclobutyl-N-methyl-[2,1,3]-benzoxadiazole-5-carboxamide], for which the melting point lay within 51 to 52 °C. The inhibition in vivo at 18 mg/kg in data set [1] was 37%. Moreover, in data set [2], the “In vivo Electrophysiology: % increase in the amplitude of the field EPSP in the dentate gyrus of rat” value came out at 10%.
`CN(C(=O)c1ccc2nonc2c1)C1CCCCC1` [Example 4, N-Cyclohexyl-N-methyl-[2,1,3]-benzoxadiazole-5-carboxamide] yielded a melting point of 134 to 135 °C. In data set [1], the inhibition in vivo at 18 mg/kg was found to be 80%. For the same compound, the “In vivo Electrophysiology: % increase in the amplitude of the field EPSP in the dentate gyrus of rat” value in data set [2] is recorded as 17%.
For `CN(C(=O)c1ccc2nonc2c1)[C@H]1CC[C@](C)(O)CC1` [Example 45, N-(trans-4-hydroxy-4-methylcyclohexyl)-N-methyl-[2,1,3]-benzoxadiazole-5-carboxamide] the same measures were 175 to 176 °C, 122% and 19%.
The corresponding values for `CN(C(=O)c1ccc2nonc2c1)C1CCC(F)(F)CC1` [Example 40, N-(4,4-Difluorocyclohexyl)-N-methyl-[2,1,3]-benzoxadiazole-5-carboxamide] are 137 to 138 °C, 84% and 18%.
For `CN(C(=O)c1ccc2nonc2c1)C1CCC(=O)CC1` [Example 37, N-Methyl-N-(4-oxocyclohexyl)-[2,1,3]-benzoxadiazole-5-carboxamide] the same measures were 183 to 184 °C, 100% and 18%.
